The values below are quoted from earlier work in PMC3387528 (Journal of the American Chemical Society, 2011).

One series concerns dsDNA. To be noted: substrate dsDNA; no coreagents; pH 7.0, 37 °C; ref [22].
Series [1] relates to ApA (adenylyl(3′-5′)adenosine). Conditions: substrate ApA; no coreagents; pH 7.2, 30 °C; ref [28].

Turning to `[Eu+3]` [Eu^3+], the “k2, expressed as kcat/KM” value with dsDNA was 108 ^b M^−1 min^−1.
With `[Cl][Lu]([Cl])[Cl]` [LuCl3], the “k2, second-order rate constant” value in series [1] was 38 M⁻¹ min⁻¹.
